Laboratory results reported in US10875898B2, “Bioactive protein, use thereof and method for its production” (Koppert B.V., priority 2014, dated 2020).

Key:
tomato leaves = test: activation of tomato plant defense responses after leaf injection; assay type: in vivo
Description: FIG. 5: Effect of purified HYTLO1 (5 μM) injected on tomato leaves after 48 hours under UV light. Fluorescence is due to accumulation of compounds related to plant defense response.
FIG. 6: Effect of purified HYTLO1 ([…]) on the activation of tomato plant defense responses. Leaves were injected with […] of the protein solution and analyzed after 24 and 48 hours for the production of: (A) anion superoxide (XTT assay, mg p.s.=milligram of dry weight), (B) SOD activity (U/mg proteins), (C) ROOH peroxide accumulation (FOX1 assay), (D) LOX activity, (E) phytoalexin rishitin accumulation (g f.w.=gram of leaf fresh weight). Values are means+S.E. Methods used are the followings. Lyophilized plant tissues (10 mg) from HYTLO1-injected and -non injected tomato leaves were collected at different time points after inoculation (from 6 to 48 h) and homogenized. Anion superoxide was detected by measuring the reduction of 2,3-bis(2-methoxy-4-nitro-5-sulfophenyl)-5-[(phenylamino) carbonyl]-2H-tetrazolium hydroxide (XTT) to formazan, according to Sutherland, M. W., and B. A. Learmonth, 1997, Free Radical Research, 27:283-289, with modifications reported by Castoria, R., et al., 2003, Phytopathology, 93:564-572. Absorbance at 490 nm was measured in a microplate reader. XTT levels were expressed as mean absorbance values mg-1±standard errors. The activities of SOD, pH 7.8 and 10.0 (EC 1.15.1.1) and LOX enzymes (EC 1.13.11.12) were quantified as described by Reverberi M, et al., 2005, Free Radical Research, 39:637-647. Total hydroperoxides (ROOH) were detected by using the FOX spectrophotometric assay by monitoring the oxidation of xylenol orange at 560 nm (Ferrous ion oxidation xylenol orange: FOX-1) (Banerjee D, et al., 2003, Clinica Chimica Acta, 337:147-152). Quantification of the phytoalexins rishitin was performed by treating the leaf samples with methylene chloride (2 ml) in the presence of 100 mg of BHT. The tubes were left in a fume hood for 15/20 minutes and occasionally shaken. The extracts were filtered on filter paper Whatmann 3 MM and dried under nitrogen flow. Rishitin was quantified by GC-MS as described in Fanelli et al., 1992, Natural Toxins 1: 136-146.
FIG. 7: Effect of purified HYTLO1 on the activation of tomato plant defense responses. Leaves were injected with HYTLO1 at the indicated concentrations and analyzed after 48 hours by Real Time PCR for the accumulation of PR (Pathogenesis-Related)-proteins PR1, PR2 and PIN2 RNA (for methods see Tucci M., et al., 2011, Molecular Plant Pathology, 12:341-354) Values indicated the n. of fold increase vs. untreated control.
We analyzed the plant biochemical reaction to HYTLO1, which resulted stimulatory for the formation of the superoxide anion and hydrogen peroxide, for anion superoxide dismutase (SOD) and LOX activity, and the accumulation of the phytoalexin rishitin (FIG. 6).

cucumber = test: combined application of HYTLO1, HA and 6PP on cucumber seed germination and growth promotion; assay type: in vivo; parameters: Root length, increase % vs. Control / Plant fresh weight, increase % vs. Control / Plant dry weight, increase % vs. Control / plant height, increase % vs. Control: concentration or dose not given beside the values
Description: Tested metabolites include 6PP and Harzianic Acid, and experiments were performed on seed germination, stem or root elongation as well fresh/dry weight. The results shown in Table 1 were obtained by using cucumber seeds coated with the solutions of the tested compounds, that were then transferred in Petri dishes and left to germinate on filter humid paper. First seed germination was evaluated, then the germinated seedlings were transplanted into pots containing sterilised soil. Other two treatments with the purified molecules were performed at 10 days interval, by drenching the soil with the solutions at the final concentrations of 10^−7M for 6PP and HA, and 10^−8M for HYTLO1. In two-compounds application, half dose of each molecule was used. In three-compound applications, one third of the dose of each molecules was used. Each treatments consisted of 8 plants. Results were collected 30 days after seed coating. Control was produced by adding water instead of the molecule solutions. The effect of the minimal amounts of solvents eventually contained in HA and 6PP solution was preliminary tested, with no differences observed in comparison to water control. The results shown in Table 1 that all of the three tested molecules have a significant beneficial effect on seed germination and plant growth, and that they can be synergistically combined for enhanced effectiveness.

[1] = 0.15, 2.5, 5.0 mM, 24 and 48 hours

**Q.** “HYTLO1: about 7 KDa Type II hydrophobin protein from Trichoderma longibrachiatum strain MK1, 71 aa, SEQ ID NO: 1” was tested. Which “accumulation of fluorescent compounds under UV light” value (tomato leaves; 5 μM injected on tomato leaves, after 48 hours) did it give?
**A.** accumulation of fluorescent compounds

**Q.** What about the LOX activity (tomato leaves; [1]) of the same substance?
**A.** stimulatory

**Q.** And the “accumulation of the phytoalexin rishitin” value (tomato leaves; [1])?
**A.** stimulatory

**Q.** What about the “anion superoxide dismutase (SOD) activity” value (tomato leaves; [1]) of the same substance?
**A.** stimulatory

**Q.** And the “formation of hydrogen peroxide (ROOH, FOX1 assay)” value (tomato leaves; [1])?
**A.** stimulatory

**Q.** What about the “formation of the superoxide anion (XTT assay)” value (tomato leaves; [1]) of the same substance?
**A.** stimulatory

**Q.** What about the “defense responses in leaves distant from the site of application” value (tomato leaves; tomato leaf injection) of the same substance?
**A.** systemic effect

**Q.** And the “activation of defense-related genes PR1, PR2 and PIN1 (RT-PCR)” value (tomato leaves; tomato leaves, 48 hours)?
**A.** induced the activation

**Q.** What about the “Plant dry weight” value (cucumber; 30 days after seed coating, SD +− 1.3 g) of the same substance?
**A.** 8.4 g

**Q.** And the “Root length (cm)” value (cucumber; 30 days after seed coating, SD +− 2.1 cm)?
**A.** 14.6 cm

**Q.** And the “Plant fresh weight” value (cucumber; 30 days after seed coating, SD +− 2.5 g)?
**A.** 24.76 g

**Q.** And the “plant height (cm)” value (cucumber; 30 days after seed coating, drench 10^−7M 6PP and HA, 10^−8M HYTLO1, half or one third dose in combinations, SD +− 2.5 cm)?
**A.** 24.9 cm

**Q.** What about the “Seed germination (24 h)” value (cucumber; coated cucumber seeds on humid filter paper, SD +− 9%) of the same substance?
**A.** 78%

**Q.** And the “Seed germination (24 h), increase % vs. Control” value (cucumber; vs water control)?
**A.** +30%

**Q.** And the “Plant dry weight, increase % vs. Control” value (cucumber; vs water control, 30 days)?
**A.** 51.2%

**Q.** What about the “Plant fresh weight, increase % vs. Control” value (cucumber; vs water control, 30 days) of the same substance?
**A.** 34.1%

**Q.** And the “Root length, increase % vs. Control” value (cucumber; vs water control, 30 days)?
**A.** 17.1%
